# Source: patent US20220125752A1, “LEVODOPA DERIVATIVE AND USE THEREOF” (UNIVERSITY OF TSUKUBA, priority 2019, published 2022)
# What was measured:
# [1] = tested on: MPTP mouse model of Parkinson's disease; assay: Narrow beam walk test, intraperitoneal treatment; format: in vivo, C57BL/6J mice; conditions: Day 7; 15 mg/kg (in terms of L-DOPA) intraperitoneal; versus MPTP-administered group
# Source text: Male C57BL/6J mice, 15 weeks old, were used (see Chonpathompikunlert, P. (2018). BMC Complementary and Alternative Medicine, 18(103), 1 -12). […] The administration before treatment was to induce PD, and the administration after treatment was to visualize by a behavioral test. […] In this test, motor ability can be accessed by measuring the time until a mouse passes through a narrow bridge with a width of 1 cm, and the time increases with Parkinson's disease.
# [2] = tested on: MPTP mouse model of Parkinson's disease; assay: Grid walking test, intraperitoneal treatment; format: in vivo, C57BL/6J mice; conditions: Day 11, after MPTP administered again; 15 mg/kg (in terms of L-DOPA) intraperitoneal for 11 days
# Protocol: Male C57BL/6J mice, 15 weeks old, were used (see Chonpathompikunlert, P. (2018). BMC Complementary and Alternative Medicine, 18(103), 1 -12). […] The administration before treatment was to induce PD, and the administration after treatment was to visualize by a behavioral test. […] A grid walk test was performed as a behavioral test according to the above schedule, and the number of times the limbs of the mouse slipped into the opening was counted to test the balance ability.
# [3] = tested on: L-DOPA-induced dyskinesia in MPTP mice; assay: Abnormal involuntary movement scale test (AIMS test); format: in vivo, C57BL/6J mice; conditions: Day 17; 25 mg/kg (in terms of L-DOPA) with Benserazide 12 mg/kg for 17 days
# Protocol: Male C57BL/6J mice, 15 weeks old, were used (see Chonpathompikunlert, P. (2018). BMC Complementary and Alternative Medicine, 18(103), 1 -12). […] The administration before treatment was to induce PD, and the administration after treatment was to visualize by a behavioral test. […] An abnormal involuntary movement scale test (AIMS test) was performed as a behavioral test according to the above schedule, and the severity of dyskinesia was scored (0: no AIM, 1: AIM in <50%, 2: AIM in >50%, 3: continuous but stopped by stimulation, 4: continuous). Mice with a strong symptom of dyskinesia have a large score.
# [4] = tested on: L-DOPA-induced dyskinesia in MPTP mice; assay: Slider test; format: in vivo, C57BL/6J mice; conditions: Day 17; 25 mg/kg (in terms of L-DOPA) with Benserazide 12 mg/kg for 17 days
# Source text: Male C57BL/6J mice, 15 weeks old, were used (see Chonpathompikunlert, P. (2018). BMC Complementary and Alternative Medicine, 18(103), 1 -12). […] The administration before treatment was to induce PD, and the administration after treatment was to visualize by a behavioral test. […] (6) In addition, in a slider test, motor ability can be assessed by measuring the time until each mouse becomes unable to walk on a slope of 26.5 degrees or slides down, and the time is expected to be shortened with Parkinson's disease.
# [5] = Body weight change and health during treatment; format: in vivo, C57BL/6J mice; conditions: 15 mg/kg (in terms of L-DOPA) intraperitoneal for 11 days
# Protocol: Male C57BL/6J mice, 15 weeks old, were used (see Chonpathompikunlert, P. (2018). BMC Complementary and Alternative Medicine, 18(103), 1 -12). A method of intraperitoneally administering 1-methyl-4-phenyl -1,2,3,6-tetrahydropyridine (MPTP) was used, but MPTP was administered before and after treatment with intraperitoneal administration of nanoparticles because of high recovery ability of mice themselves. The administration before treatment was to induce PD, and the administration after treatment was to visualize by a behavioral test.
# The mice were randomly divided into the following four groups (n=4). • 1) Saline, for 12 days • 2) MPTP 20 mg/kg, 4 times daily, every 2 hours+saline, for 11 days+MPTP 30 mg/kg, for 3 days • 3) MPTP 20 mg/kg, 4 times daily, every 2 hours+L-DOPA 15 mg/kg, for 11 days+MPTP 30 mg/kg, for 3 days • 4) MPTP 20 mg/kg, 4 times daily, every 2 hours+NPs 15 mg/kg (in terms of L-DOPA), for 11 days+MPTP 30 mg/kg, for 3 days
# [6] = tested on: Parkinson's disease mouse models (MPTP); assay: Catalepsy test, oral administration; format: in vivo, C57BL/6J mice; conditions: L-DOPA 15 mg/kg, Nano^DOPA 1.5 mg/kg (given ad libitum), same day as acute MPTP
# Protocol: (§1) Male C57BL/6J mice, 15 weeks old, were used as models as in Test 2. A three-day training period was provided for the models prior to administration to familiarize them with the experimental apparatus. MPTP was administered intraperitoneally at 30 mg/kg every day for the first 5 days (sub-acute). After the administration of MPTP, oral administration of L-DOPA or Nano^DOPA (administered once daily with a tube) was started, and MPTP was administered intraperitoneally to Groups II and III on Day 9, 4 times daily, every 2 hours (acute). MPTP was also administered intraperitoneally in a similar manner to the remaining Group IV on Day 10. The catalepsy test was performed on the same day as the acute administration of MPTP. In addition, the narrow beam walk test (see Test 2 (4)) was performed 2 days after the catalepsy test. All the mice were euthanized the next day of the behavioral test. Each group described above was as follows, and the mice were randomized into the following four groups (n=8). II. MPTP 30 mg/kg, for 5 days (sub-acute)+MPTP 20 mg/kg, 4 times daily, every 2 hours (acute) MPTP 30 mg/kg, for 5 days (sub-acute)+MPTP 20 mg/kg, 4 times daily, every 2 hours (acute)+L-DOPA 15 mg/kg (oral) IV. MPTP 30 mg/kg, for 5 days (sub-acute)+MPTP 20 mg/kg, 4 times daily, every 2 hours (acute)+Nano^DOPA 1.5 mg/kg (given ad libitum) The results are shown in FIG. 21.
# [7] = tested on: Parkinson's disease mouse models (MPTP); assay: Narrow beam walk test, oral administration; format: in vivo, C57BL/6J mice; conditions: oral L-DOPA 15 mg/kg; versus MPTP-administered group
# Protocol: as §1
# [8] = tested on: heart, lung, liver, spleen, and kidney; design: species or system mice; conditions: mouse, in vivo
# Protocol: After the animals were euthanized, major organs were cut out from mouse models of Parkinson's disease (PD) and L-DOPA-induced dyskinesia (LID) and fixed in a 4% paraformaldehyde solution at 4° C. for 72 hours. These tissues were then processed using an automated tissue processor (TP1020, Leica, Germany). The samples embedded in paraffin were subsequently sliced to a thickness of […] with an automatic microtome and stained with hematoxylin and eosin (H&E) as well as Masson trichrome (MT). Histological evaluation was performed by observation under an optical microscope (DP73, Olympus, Japan) and assessment of the potential toxicity of the PEG-b-P(L-DOPA(OAc)2)-Npa (or Nano^DOPA) during the treatment.
Molecule,time to pass through narrow bridge (narrow beam walk) [1],number of slipping in grid walking test [2],severity of dyskinesia (AIMS observation) [3],"slider test, walking on a slope of 26.5 degrees [4]",body weight after MPTP-induced loss [5],health damage during the administration [5],catalepsy test [6],foot slip errors in narrow beam walk test [7],organ damage by H&E staining [8]
"N[C@@H](Cc1ccc(O)c(O)c1)C(=O)O [L-DOPA, 3,4-dihydroxy-L-phenylalanine]",improvement in therapeutic effect were continuously and significantly observed,no difference was observed in the L-DOPA-administered group compared to the non-treatment group,involuntary movements of the oral cavity and twisting of the body axis characteristic of dyskinesia were observed only in the L-DOPA-administered group,sliding down due to involuntary movements of mice was observed only in the L-DOPA-administered group,rapidly recovered,no noticeable health damage was observed,no significant difference,significantly suppressed,
PEG-b-P(L-DOPA(OAc)2),,,,,,,,,does not damage each organ at all
